Experiments:
guinea pigs [1] = assay: Antibody titre (antibovine serum albumin or antiovalbumin antibodies) by passive hemagglutination or Farr radioimmune assay; type: in vivo; conditions: relative to FIA = 1; dose 50 μg per guinea pig, subcutaneous in FIA emulsion; sera day 42
Protocol: (§1) The antigen mixture used consists of 20 μg. of arsanilic tyrosine and 100 μg. of protein [either bovine serum albumin (BSA) or ovalbumin]. The antigen mixture and the compounds to be tested, at the dose levels per guinea pig shown in the Table below, are dissolved in saline and emulsified with an equal volume of Freund's Incomplete Adjuvant (FIA). Groups of ten guinea pigs are used for each test compound and each guinea pig is injected with 0.1 ml. of the above emulsion, subcutaneously, in the nuchal region. Control groups are given the antigen mixture alone emulsified with FIA.
On day 42 all animals are bled by cardiac puncture and the sera assayed for antibovine serum albumin or antiovalbumin antibodies by the passive hemagglutination technique or by radiommune assay using the Farr techbique (P. Minden and R.S. Farr in "Handbook of Experimental Immunology", edited by D.M. Weir, Chapter 15, Volume 1, Blackwell Scientific Publications, Oxford) using 125 iodine labeled bovine serum albumin. Average potencies of these assays are presented in Column 2 of the Table below relative to FIA having the value of one.

guinea pigs [2] = assay: Delayed hypersensitivity to arsanilic tyrosine, skin test after immunisation with antigen mixture plus test compound in FIA; type: in vivo; conditions: relative to FIA = 1; dose 50 μg per guinea pig, subcutaneous in FIA emulsion; skin test day 14, read at 24 hours
Protocol: as §1
After 14 days, all animals are skin tested using 25 μg arsanilic tyrosine conjugated to either BSA or ovalbumin (BSA is used in this test when ovalbumin is present in the antigen mixture and vice versa) which is given in 0.1 ml saline intradermally in the flanks of the animals. […] Thus, the procedure is as follows: skin tests with a high degree of infiltration are scored as ++ and assigned the number 3; those with a lesser degree are scored as + and given the number 2, whereas skin reactions with no infiltration are scored as zero and assigned the number 1. […]

dogs = assay: Side effects in dogs after inoculation; type: in vivo, dog; conditions: 4 dogs
Text: A. 48 Dogs were divided into groups and inoculated with the amounts of compound (per kilogram of body weight) as shown in the following Table: […]

cats = assay: Side effects in cats after inoculation; type: in vivo, cat; conditions: 1500 μg per kilogram
Text: B. Seven cats were divided into groups and inoculated with the amounts of compounds (per kilogram of body weight) as shown in the following Table: […]

Compound	Average Potency, Antibody Titre (guinea pigs [1])	Average Potency, Delayed Hypersensitivity to Arsanilic Tyrosine (guinea pigs [2])	dogs showing severe depression, excessive salivation and vomiting (dogs; 240 μg per kilogram of body weight)	dogs showing severe depression, excessive salivation and vomiting (dogs; 600 μg per kilogram of body weight)	dogs showing severe depression, excessive salivation and vomiting (dogs; 1500 μg per kilogram of body weight)	condition at 24 hours post-inoculation (cats; 3 cats)	food intake (cats; 3 cats)	general condition following inoculation (cats; 3 cats)	diarrhea (cats; 3 cats, 2-5 hours post-inoculation)	vomiting, number of times (cats; 3 cats, over a period of 2-5 hours post-inoculation)	rectal temperature, peak (cats; seven hours post-inoculation) [° F]
2-acetamido-2-deoxy-D-glucos-3-O-yl-acetyl-L-prolyl-D-isoglutamine	8.0	5.4	–	–	–	–	–	–	–	–	–
CC(=O)N[C@H]1C(O)O[C@H](CO)[C@@H](O)[C@@H]1OC(C)C(=O)N[C@H](C)C(=O)N[C@H](CCC(=O)O)C(N)=O (stereo partly drawn) [2-(2-acetamido-2-deoxy-D-glucos-3-0-yl)-D-propionyl-L-alanyl-D-isoglutamine]	3.7	3.3	two of the dogs	All of the dogs	All of the dogs	all animals had returned to normal	Food was refused	became depressed and unkempt	All animals had diarrhea	4-6 times	104
